The assay deals with Vaccinia virus. In words: Antiviral activity against vaccinia virus Copenhagen measured as cytopathogenicity in HFF cells. Conditions: Orthopoxvirus vaccinia. The format is functional, organism-based.

A value given as a limit tells only on which side of the number the result lay.

For `CCOC(OCC)c1cn(C2C[C@H](OC(C)=O)[C@@H](COC(C)=O)O2)c(=O)[nH]c1=O` (some centres not stated), the EC50 came out at 38 µM. Compound `COC(OC)c1cnc(O)nc1O` displayed an EC50 greater than 300 µM. Regarding `CC(=O)OC[C@H]1OC(n2cc(C3OCCCO3)c(=O)[nH]c2=O)C[C@@H]1OC(C)=O` (some centres not stated), the EC50 is greater than 300 µM. Turning to `CC(=O)OC[C@H]1OC(n2cc(C=O)c(=O)[nH]c2=O)C[C@@H]1OC(C)=O` (some centres not stated), the EC50 was greater than 300 µM. Consider `COC(OC)c1cn(C2C[C@H](OC(C)=O)[C@@H](COC(C)=O)O2)c(=O)[nH]c1=O` (some centres not stated), for which the EC50 amounted to 296 µM.

Compound `COC(OC)c1cn(C2C[C@H](O)[C@@H](CO)O2)c(=O)[nH]c1=O` (some centres not stated) showed an EC50 of 8.4 µM. Regarding `O=Cc1cn([C@H]2C[C@H](O)[C@@H](CO)O2)c(=O)[nH]c1=O`, the EC50 is greater than 300 µM. Consider `CC(=O)OC[C@H]1OC(n2cc(C3OCCO3)c(=O)[nH]c2=O)C[C@@H]1OC(C)=O` (some centres not stated), for which the EC50 was greater than 300 µM. For `CCOC(OCC)c1cn(C2C[C@H](O)[C@@H](CO)O2)c(=O)[nH]c1=O` (some centres not stated), the EC50 is greater than 60 µM.

For `O=c1[nH]c(=O)n(C2CC(O)[C@@H](CO)O2)cc1C1OCCO1` (single isomer, unassigned), the EC50 was greater than 300 µM. The compound `O=c1[nH]c(=O)n(C2CC(O)[C@@H](CO)O2)cc1C1OCCCO1` (single isomer, unassigned) came in with an EC50 greater than 300 µM.

Regarding `Nc1ccn(C[C@@H](CO)OCP(=O)(O)O)c(=O)n1` [CIDOFOVIR], a half-maximal effect (EC50) was put at 6.9 µM.

Source of the values: ChEMBL document CHEMBL1148520, “5-(Dimethoxymethyl)-2'-deoxyuridine: a novel gem diether nucleoside with anti-orthopoxvirus activity” (J Med Chem, 2006).
